# In patent US10844049B2, “GLP-1R agonists and uses thereof” (QILU REGOR THERAPEUTICS INC., priority 2018, dated 2020):
# Columns and labels:
# Assay type in all cases: cell-based
# GLP1R [1] = biological target: T1, GLP1R (Homo sapiens, UniProt P43220); assay: β-Arrestin-mediated GLP1R internalization assay (PathHunter engineered U2OS cells); design: host or cells: PathHunter engineered U2OS cells; details: averaged Bmax, percentage of control GLP-1 (7-37), highest concentration tested
# Description: A similar assay can also be used to assess the extent of signal attenuation due to GLP-1R internalization (the β-Arrestin Internalization Assay). In this assay, activated GLP1R Internalization cells were engineered to co-express an untagged GLP1R, Enzyme Acceptor (EA) tagged β-Arrestin, and a ProLink™ (PK) tag localized to the endosomes. Activation of the GLP1R induces β-Arrestin recruitment, which leads to internalization of the Receptor/Arrestin-EA complex in PK-tagged endosomes. This forces complementation of the two β-galactosidase enzyme fragments (EA and PK) to form a functional enzyme that hydrolyzes substrate to generate a chemiluminescent signal. These cells have been modified to prevent long term propagation and expansion using a proprietary compound that has no apparent effect on assay performance.
# Specifically, PathHunter engineered U2OS cells from the assay kit (Cat #93-0724E3CP0L) were plated at a density of 2000 cells/20 μL/well in a 384-well white/clear bottom plates (Greiner Cat #781098). Frozen cells were quickly thawed and 10 mL of cell plating medium (provided by the kit) was added to thawed cells. Cells were stored in a 37° C. incubator and kept for approximately 48 hours until ready for the assay.
# Reference and test compounds were dissolved in 100% DMSO. 5× concentration of an agonist was prepared in serum free DMEM (Thermo Cat #11965). 5 μL of this solution was added to 20 μL cell medium in assay plate for a final top concentration of 10 μM. Plates were incubated at 37° C. for 180 min.
# Following 180 min incubation, detection reagents were made up by combining 1 part Galacton Star Substrate with 5 parts Emerald II™ Solution, and 19 parts of PathHunter Cell Assay Buffer, respectively. 12.5 μL detection reagent was added to each well. The plates were then incubated at room temperature for 60 min. Plates were then read on Envision for 0.1 sec/well.
# EC50 determinations were made from agonist dose-response curves analyzed with a curve fitting program using a 4-parameter logistic dose response equation.
# GLP1R [2] = biological target: T1, GLP1R; assay: GLP1R cAMP assay, CHO cells stably expressing human GLP-1R; details: CHO cells stably expressing GLP-1R, read-out: CHO cAMP stable EC50
# Description: GLP-1R-mediated agonist activity was determined with a cell-based functional assay utilizing an HTRF (Homogeneous Time-Resolved Fluorescence) cAMP detection kit (cAMP Dynamic 2 Assay Kit; CisBio cat #62AM4PEC) that measures cAMP levels in the cell. The method is a competitive immunoassay between native cAMP produced by the cells and exogenous cAMP labeled with the dye d2. The tracer binding is visualized by a mAb anti-cAMP labeled with Cryptate. The specific signal (i.e., energy transfer) is inversely proportional to the concentration of cAMP in either standard or experimental sample.
# Varying concentrations of each compound to be tested (in DMSO) were diluted in DMSO to obtain 200× compound working solution first and then 50 nl compounds were added to a white 384-well assay plate (Greiner 784075) with ECHO. The final DMSO concentration was 0.5%. The compound concentration range may be adjusted at any time.
# Cells were removed from cryopreservation, re-suspended in 5 mL of Dulbecco's Phosphate Buffered Saline (DPBS-Sigma Cat # D8537) and centrifuged at 900 g for 5 min at 22° C. The cell pellet was then re-suspended in 1 mL of assay buffer [DPBS with 500 μM IBMX (Sigma #15879) and 0.1% BSA (Sigma # A1933). IBMX and BSA were freshly added on the day of assay]. A 10 μL sample of the cell suspension was counted on an Invitrogen Countess II to determine cell viability and cell count per mL. The remaining cell suspension was then adjusted with assay buffer to deliver 1000 viable cells per well using a Matrix Combi Multidrop reagent dispenser. 10 μL cell suspensions were added to each well of the assay plate which already contains compound. The plate was sealed and incubated at 37° C. with 5% CO2 for 30 minutes.
# Following the 30 minute incubation, 5 μL of labeled d2 cAMP and 5 μL of anti-cAMP antibody (both diluted 1:20 in cell lysis buffer; as described in the manufacturer's assay protocol) were added to each well of the assay plate. The plates w ere then incubated at room temperature and after 60 minutes, changes in the HTRF signal were read with an Envision multi-label plate reader using excitation of 330 nm and emissions of 615 and 665 nm. Raw data were converted to nM cAMP by interpolation from a cAMP standard curve (as described in the manufacturer's assay protocol) and the percent effect was determined relative to a saturating concentration of the full agonist GLP-17-37 (10 nM) included on each plate. EC50 determinations were made from agonist dose-response curves analyzed with a curve fitting program using a 4-parameter logistic dose response equation. […]
# GLP1R [3] = biological target: T1, GLP1R; assay: GLP1R cAMP HTRF assay, HEK293/GLP-1R/CRE/Luc (HEK293T cells); details: read-out: EC50
# How it was run: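 cAMP accumulation via HTRF after 30 min, 37 °C exposure of 1000 receptor-expressing cells/well to compound (0.5% DMSO final) in IBMX (500 μM)/0.1% BSA DPBS.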
# T1 sequence (P43220 24-463): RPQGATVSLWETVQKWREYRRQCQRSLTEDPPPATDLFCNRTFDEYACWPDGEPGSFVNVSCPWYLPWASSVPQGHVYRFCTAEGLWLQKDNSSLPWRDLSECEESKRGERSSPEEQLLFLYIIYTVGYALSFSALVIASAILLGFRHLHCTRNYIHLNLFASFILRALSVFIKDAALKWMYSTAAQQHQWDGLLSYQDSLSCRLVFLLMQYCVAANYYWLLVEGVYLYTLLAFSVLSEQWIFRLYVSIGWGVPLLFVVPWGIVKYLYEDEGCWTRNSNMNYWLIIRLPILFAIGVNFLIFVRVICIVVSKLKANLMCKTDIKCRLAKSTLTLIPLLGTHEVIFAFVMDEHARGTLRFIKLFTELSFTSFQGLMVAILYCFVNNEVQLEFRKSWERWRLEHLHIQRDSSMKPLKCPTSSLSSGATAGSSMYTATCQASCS
Bmax (POC) (GLP1R [1]),EC50 (GLP1R [2]) [nM],EC50 (GLP1R [3]) [nM],SMILES
24.0 ± 6.70,≤ 15,≤ 15,"N#Cc1ccc(COc2cccc(C3=CCN(Cc4nc5ccc(C(=O)O)nc5n4C[C@@H]4CCO4)CC3)n2)c(F)c1 [Compound 225, (S)-2-((6-((4-cyano-2-fluorobenzyl)oxy)-3′,6′-dihydro-[2,4′-bipyridin]-1′(2′H)-yl)methyl)-3-(oxetan-2-ylmethyl)-3H-imidazo[4,5-b]pyridine-5-carboxylic add]"
17.7 ± 1.20,≤ 150,≤ 15,"O=C(O)c1ccc2nc(CN3CC=C(c4cccc(OCc5ccc(Cl)cc5F)c4)CC3)n(C[C@@H]3CCO3)c2c1F [Compound 237, (S)-2-((4-(3-((4-chloro-2-fluorobenzyl)oxy)phenyl)-3,6-dihydropyridin-1(2H)-yl)methyl)-7-fluoro-1-(oxetan-2-ylmethyl)-1H-benzo[d]imidazole-6-carboxylic acid]"
14.3 ± 9.21,≤ 150,≤ 15,"O=C(O)c1ccc2nc(CN3CC=C(c4ccnc(OCc5ccc(Cl)cc5F)n4)CC3)n(C[C@@H]3CCO3)c2c1 [Compound 35, (S)-2-((4-(2-((4-chloro-2-fluorobenzyl)oxy)pyrimidin-4-yl)-3,6-dihydropyridin-1(2H)-yl)methyl)-1-(oxetan-2-ylmethyl)-1H-benzo[d]imidazole-6-carboxylic add]"
27.7,≤ 15,≤ 15,"O=C(O)c1ccc2nc(CN3CC=C(c4cccc(OCc5ccc(-n6ccnc6)cc5)n4)CC3)n(C[C@@H]3CCO3)c2n1 [Compound 245, (S)-2-((4-(6-(4-(1H-imidazol-1-yl)benzyloxy)pyridin-2-yl)-5,6-dihydropyridin-1(2H)-yl)methyl)-3-(oxetan-2-ylmethyl)-3H-imidazo[4,5-b]pyridine-5-carboxylic add]"
